# Earlier results, collected in patent publication US12064440B2, “Ophthalmic gel compositions of bimatoprost and timolol and associated methods” (Somerset Therapeutics, LLC, priority 2022, dated 2024).
# Details: under certain conditions
row,active pharmaceutical ingredient (API) stability,Compound
1,degradation,CC(C)OC(=O)CCC/C=C\C[C@@H]1[C@@H](/C=C/[C@@H](O)COc2cccc(C(F)(F)F)c2)[C@H](O)C[C@@H]1O [travoprost]
2,degradation,CC(C)OC(=O)CCC/C=C\C[C@@H]1[C@@H](CC[C@@H](O)CCc2ccccc2)[C@H](O)C[C@@H]1O [latanoprost]
3,remain stable,"CCNC(=O)CCC/C=C\C[C@@H]1[C@@H](/C=C/[C@@H](O)CCc2ccccc2)[C@H](O)C[C@@H]1O [bimatoprost, (Z)-7-[(1R, 2R, 3R, 5S)-3,5-Dihydroxy-2-[(1E, 3S)-3-hydroxy-5-phenyl-1-pentenyl]cyclopentyl]-5-N-ethylheptenamid]"
